The IC50 is the concentration that inhibits the measured activity by half. Read a high IC50 as lower potency.

These results are taken from US9527879B2, “Aster glehni extracts, fractions or compounds isolated therefrom for the treatment or prevention of hyperuricemia or gout” (KOREA INSTITUTE OF SCIENCE AND TECHNOLOGY, priority 2014, dated 2016).

The target in this assay is xanthine oxidase (UniProt P80457). The assay is described as follows: Inhibition of production of uric acid by xanthine/xanthine oxidase. The class given is biochemical. The conditions noted are these: xanthine oxidase 0.024 units/mL, 100 μM xanthine, pH 7.5, 25° C.; mean ± SEM of triplicate experiments. As to the method: Uric acid is produced from xanthine oxidation by xanthine oxidase.
Specifically, the sample and xanthine oxidase (0.024 units/mL) were mixed in 100 mM phosphate buffer (pH 7.5) and preincubated at 25° C. for 10 min. The reaction was initiated by the addition of 100 μM xanthine and incubation was further carried out at 25° C. for 30 min. […] The inhibition of uric acid production A (%) was calculated according to Equation 1. […] [Equation 1]

Regarding `C[C@H](/C=C/[C@@]1(O)[C@H](C)CC(=O)CC1(C)C)OC1OC(COC(=O)/C=C/c2ccc(O)c(O)c2)C(O)C(O)C1O` (stereo partly shown) [Compound 1, 6′-O-caffeoylampelopsisionoside], the IC50 worked out at 93 ± 1.7 µM.

For `CC(=O)/C=C/C1=C(C)C(O)C(O[C@@H]2OC(COC(=O)/C=C/c3ccc(O)c(O)c3)[C@@H](O)C(O)C2O)CC1(C)C` (stereo partly shown) [Compound 3, 6′-O-Caffeoylsonchuinoside C], inhibition was half-maximal at 73.2 ± 5.1 µM (IC50).

Regarding `COc1cc(CCCO)cc(OC)c1O[C@@H]1OC(COC(=O)/C=C/c2ccc(O)c(O)c2)[C@@H](O)C(O)C1O` (stereo partly shown) [Compound 4, 6′-O-Caffeoyldihydrosyringin], the IC50 is 71.1 ± 3.9 µM.

The molecule `C/C(=C\CO)CO[C@@H]1OC(COC(=O)/C=C/c2ccc(O)c(O)c2)[C@@H](O)C(O)C1O` (stereo partly shown) [Compound 5] displayed an IC50 of 80 ± 4.9 µM.
